According to PubChem BioAssay AID1996:
In brackets after ≈: the same amount, converted by molar mass.

Settings: buffer; pH 7.4; 200.0 µM

Row | solubility kinetic | Compound
1 | > 42.6 µg/mL | Cc1ccc(Cn2c(=O)c3c(ncn3C)n(C)c2=O)cc1
2 | > 36.6 µg/mL | COc1cc(C(C)=O)ccc1Oc1cnccn1
3 | 27.8 µg/mL (≈ 81.7 µM) | Cc1ccc(OCC(=O)Nc2ccc(CN3CCOCC3)cc2)cc1
4 | 4.5 µg/mL (≈ 13.2 µM) | Cc1cc(NC(=O)c2ccc3nccnc3c2)ccc1Br
5 | > 43.1 µg/mL | COc1ccc(CNC(=O)c2c(C)cc(=O)oc2C)cc1
6 | 20.4 µg/mL (≈ 73.3 µM) | Cn1ccnc1CC(O)(c1ccccc1)c1ccccc1
7 | > 41.6 µg/mL | CCCC(=O)OCC(=O)Nc1ccc2[nH]c(=O)[nH]c2c1
8 | 40.5 µg/mL (≈ 130 µM) | Cc1ccc(NC(=O)CSc2ncc3ccccn23)cc1C
9 | 1.3 µg/mL (≈ 3.74 µM) | Cc1c(C(=O)Nc2ccc(Nc3ccccc3)cc2)cccc1[N+](=O)[O-]
10 | > 41.6 µg/mL | COc1ccc(CCC(=O)NC(C)C2CCCO2)cc1 (stereo not drawn)
11 | > 47.7 µg/mL | Cc1cccnc1NC(=O)CCNC(=O)c1ccc(Cl)cc1
12 | 2.3 µg/mL (≈ 7.26 µM) | O=C(Nc1cccc(O)c1)C1CC(c2ccc(Cl)cc2)=NO1 (stereo not drawn)
13 | 9.4 µg/mL (≈ 28.6 µM) | O=C(COC(=O)c1cnc(Cl)c(Cl)c1)c1ccc(F)cc1
14 | > 42.5 µg/mL | CCc1ccc(-c2cc(C(=O)O)c3ccccc3n2)s1
15 | 4.3 µg/mL (≈ 18.8 µM) | Cc1ccc(C(C)C)c(Oc2cnccn2)c1
16 | > 57.2 µg/mL | Cc1noc(C)c1C(=O)OCC(=O)NCCc1ccc(S(N)(=O)=O)cc1
17 | > 47.5 µg/mL | COc1ccc(NC(=S)NCc2ccc3c(c2)OCO3)cc1
18 | 34.4 µg/mL (≈ 117 µM) | O=C(c1ccccc1)c1ccc(-n2ccnc2)c([N+](=O)[O-])c1
19 | 47.3 µg/mL (≈ 141 µM) | N#CCOC(=O)[C@H](Cc1ccccc1)N1C(=O)c2ccccc2C1=O
20 | 66.7 µg/mL (≈ 126 µM) | O=C(COC(=O)[C@@H]1CC(O)CN1S(=O)(=O)c1ccc(Cl)c(Cl)c1)NC(=O)NCc1ccccc1 (stereo partly drawn)
21 | 6 µg/mL (≈ 16.6 µM) | O=C(CN1C(=O)c2ccccc2S1(=O)=O)Nc1ccc([N+](=O)[O-])cc1
22 | 5.9 µg/mL (≈ 16.3 µM) | O=C(COC(=O)c1ccccc1O)NC(c1ccccc1)c1ccccc1
23 | > 43.5 µg/mL | Cn1ncc([N+](=O)[O-])c1C(=O)Nc1ccccc1C(=O)O
24 | 42 µg/mL (≈ 132 µM) | COc1ccc(NC(=O)CN(C)C(=O)Cc2ccsc2)cc1
25 | 5.8 µg/mL (≈ 20.3 µM) | Cc1cc(C)nc(NC(=S)NC(=O)c2ccccc2)n1
26 | > 51.7 µg/mL | CCOC(=O)Cc1c(C)nc(Cc2ccc(OC(C)C)cc2)[nH]c1=O
27 | > 52.4 µg/mL | CC(=O)Nc1ccc(NS(=O)(=O)c2ccc(C)cc2)c([N+](=O)[O-])c1
28 | 2.1 µg/mL (≈ 6.55 µM) | COC(=O)c1ccc(Oc2nc(SC)nc(N(C)C)n2)cc1

Row | solubility kinetic | Compound
29 | 18.6 µg/mL (≈ 64.3 µM) | CC(=O)c1ccc(NC(=O)c2noc(C)c2[N+](=O)[O-])cc1
30 | > 32.4 µg/mL | Cc1nc(N)nc(COc2ccccc2)n1
31 | > 49.1 µg/mL | Cc1ccc(OCC(=O)NCCCNC(=O)c2cccnc2)cc1
32 | 0.5 µg/mL (≈ 1.53 µM) | O=C(Nc1ccc(Br)cn1)c1cccc2ccccc12
33 | 42.8 µg/mL (≈ 119 µM) | CCOC(=O)C1(CC2CC2)CCN(Cc2ccc(C(=O)OC)cc2)CC1
34 | 0.7 µg/mL (≈ 2.36 µM) | COc1ccc(C)cc1NC(=O)Nc1ccc2c(c1)CCC2
35 | 41.5 µg/mL (≈ 144 µM) | C=CCc1cccc2cc(C(=O)NCCOC)c(=O)oc12
36 | > 38.9 µg/mL | O=C(Cc1cccs1)NCCCc1ccccc1
37 | > 55.3 µg/mL | O=C(O)COCC(=O)N1CCN(C(c2ccccc2)c2ccccc2)CC1
38 | 3.7 µg/mL (≈ 13.2 µM) | Cc1nc([N+](=O)[O-])cn1CC(=O)c1ccc(Cl)cc1
39 | > 54.3 µg/mL | CC(C)(Oc1ccc(CCNC(=O)c2ccc(Cl)cc2)cc1)C(=O)O
40 | < 0.4 µg/mL | CCCCNC(=O)c1cc2c(=O)n(CC)c3ccccc3c2s1
41 | 0.5 µg/mL (≈ 1.85 µM) | Cc1ccc(-c2cc(C(=O)NC3CCCC3)no2)cc1
42 | 13.8 µg/mL (≈ 28.3 µM) | COc1ccc(NS(=O)(=O)c2ccc(C(=O)NCC3(N4CCOCC4)CCCCC3)cc2)cc1
43 | > 46.6 µg/mL | NS(=O)(=O)c1ccc(CNC(=O)Cc2ccsc2)cc1
44 | 11.2 µg/mL (≈ 30.7 µM) | O=C(COc1ccc(F)cc1)NCCNC(=O)COc1ccc(F)cc1
45 | > 45.8 µg/mL | CCOc1ccc(S(=O)(=O)NC(=O)c2ccccc2)cc1
46 | 49.1 µg/mL (≈ 148 µM) | Cc1ccccc1CSCC(=O)NCCSc1ccccn1
47 | 43.9 µg/mL (≈ 149 µM) | COC(=O)c1cc(S(=O)(=O)Nc2ccc(C)cn2)c[nH]1
48 | 38.8 µg/mL (≈ 136 µM) | Cc1ccc(C(=O)NCCNC(=O)c2ccco2)cc1C
49 | 0.6 µg/mL (≈ 2.12 µM) | Cc1cc(NC(=O)C(=O)c2cn(C)c3ccccc23)no1
50 | 30.2 µg/mL (≈ 113 µM) | Cc1ccccc1OCc1nc(-c2cccnc2)no1
51 | > 45.5 µg/mL | O=C(CSc1ncccn1)NCc1ccc2c(c1)OCO2
52 | 17 µg/mL (≈ 65.6 µM) | COc1ccc(CNc2ncccc2[N+](=O)[O-])cc1
53 | > 34.8 µg/mL | O=C(NC1CCCCNC1=O)c1ccccc1 (stereo not drawn)
54 | 41.1 µg/mL (≈ 113 µM) | O=S(=O)(c1ccc(F)cc1)N1CCN(CCOc2ccccc2)CC1
55 | 14.4 µg/mL (≈ 48.2 µM) | COc1ccc(S(=O)(=O)Nc2ccc(Cl)cn2)cc1

Continued, molecule first:

Row | Compound | solubility kinetic
56 | CCCCNC(=O)c1cc(S(=O)(=O)N2CCCCC2)oc1C | 24 µg/mL (≈ 73.1 µM)
57 | COc1cc(NC(=O)c2cc(C)no2)c(OC)cc1Cl | 1.8 µg/mL (≈ 6.07 µM)
58 | C/C(=N\O)C(C)(C)Nc1cccc(Br)c1 | 37 µg/mL (≈ 136 µM)
59 | O=C(Nc1nc2c(s1)CN(Cc1ccccc1)CC2)C1CCC1 | 40 µg/mL (≈ 122 µM)
60 | Cc1cccc(Cn2cnc3c(sc4nc(C)cc(C)c43)c2=O)c1 | < 0.2 µg/mL
61 | O=c1nc2n(c3ncccc13)CCCCC2 | > 32.3 µg/mL
62 | O=C(OCC(=O)N1CCOCC1)c1ccc(O)cc1 | 31 µg/mL (≈ 117 µM)
63 | Cn1c(=O)c2cc3c(nc2n(C)c1=O)CC(c1ccccc1)CC3=O (stereo not drawn) | 0.5 µg/mL (≈ 1.49 µM)
64 | CN1C(=O)[C@H](Cc2ccc([N+](=O)[O-])cc2)NC1=S | 28.1 µg/mL (≈ 106 µM)
65 | CC1=CC(=C(C#N)C#N)c2ccccc2N1C | 2.7 µg/mL (≈ 12.2 µM)
66 | Cn1c(=O)c2sccc2n(Cc2ccccc2)c1=O | > 40.8 µg/mL
67 | Nc1nc(Oc2ccc(F)cc2)c(Br)c(=O)[nH]1 | > 45 µg/mL
68 | O=C1CC(C(=O)N2CCCc3ccccc32)CN1c1ccc(Cl)cc1 (stereo not drawn) | 46.2 µg/mL (≈ 130 µM)
69 | CC(C)c1ccc[n+](-c2nc([O-])sc2C=O)c1 | 27.4 µg/mL (≈ 110 µM)
70 | Cc1nc(Nc2ccccc2)c2oc3ccc(Cl)cc3c2n1 | < 0.2 µg/mL
71 | CC1(C)CC(NC(=O)c2cc(S(=O)(=O)N3CCOCC3)ccc2Cl)CC(C)(C)N1.Cl | > 72.1 µg/mL
72 | CCOc1ccc(C2C3=C(CCCC3=O)OC(N)=C2[N+](=O)[O-])cc1 (stereo not drawn) | > 49.6 µg/mL
73 | O=C(CN1C(=O)CCSc2ccccc21)NC1CCCCC1 | 43.3 µg/mL (≈ 136 µM)
74 | Cc1ccc2nc(SCC(=O)NC3CCS(=O)(=O)C3)[nH]c2c1 (stereo not drawn) | 48.3 µg/mL (≈ 142 µM)
75 | CSC(=NCc1ccco1)NC#N | 27.8 µg/mL (≈ 142 µM)
76 | Cc1cc(C)c2nc(SCC(=O)Nc3cc(C)on3)c(C#N)cc2c1 | < 0.2 µg/mL

Row | Compound | solubility kinetic
77 | COCCCNS(=O)(=O)c1ccc2[nH]c(=O)[nH]c2c1 | > 42.8 µg/mL
78 | COc1ccc(C2Nc3ccccc3NC3=C2C(=O)CC(C)(C)C3)cc1O (stereo not drawn) | 34.7 µg/mL (≈ 95.2 µM)
79 | CN1C(=O)/C(=C\c2ccco2)N=C1c1ccc(Cl)cc1Cl | 33 µg/mL (≈ 103 µM)
80 | CC1CN(C(=S)NC(=O)c2ccc(Cl)cc2)CC(C)O1 (stereo not drawn) | > 46.9 µg/mL
81 | COc1ccccc1/C=C1/C(=O)ON=C1C | 31.3 µg/mL (≈ 144 µM)
82 | COc1ccc(CN2CC[C@@H](N3CCOCC3)[C@H](O)C2)cc1F | 43.3 µg/mL (≈ 133 µM)
83 | COc1ccc2[nH]c(=O)c(C(=O)O)cc2c1 | > 32.9 µg/mL
84 | CC1CC(C)CN(C(=O)/C=C/c2ccc([N+](=O)[O-])s2)C1 (stereo not drawn) | 5.8 µg/mL (≈ 19.7 µM)
85 | O=C(N1CCN(Cc2ccc3c(c2)OCO3)CC1)C(Cl)(Cl)Cl | 37.6 µg/mL (≈ 103 µM)
86 | O=C(CSc1nc2ccccc2c2c1CCCC2)N1CCOCC1 | 9.9 µg/mL (≈ 28.9 µM)
87 | CCC(NC(=S)NC1CCCCC1)c1ccccc1 (stereo not drawn) | 3.8 µg/mL (≈ 13.7 µM)
88 | Cc1cc(=O)oc2c(CN3CCN(CCO)CC3)c(O)ccc12 | > 47.8 µg/mL
89 | CC1CCCCN1S(=O)(=O)c1cccc2nonc12 (stereo not drawn) | 39.6 µg/mL (≈ 141 µM)
90 | COCC(=O)OC/C(O)=C(\C#N)c1nc2ccccc2[nH]1 | > 43.1 µg/mL
91 | O=[N+]([O-])c1ccc(Cl)c(NC2=NCCCCC2)c1 | > 40.2 µg/mL
92 | O=C1c2ccccc2C2(c3ccc(F)cc3)NCCN12 (stereo not drawn) | > 40.2 µg/mL
93 | c1ccc(CSc2nc3ncccn3n2)cc1 | > 36.3 µg/mL
94 | N#Cc1ccccc1COc1cccc2c1CCCC2O (stereo not drawn) | 2.1 µg/mL (≈ 7.52 µM)
95 | Oc1ccc2ccccc2c1C=NCc1ccccc1 | 10.8 µg/mL (≈ 41.3 µM)
96 | CC(C)CN(C(=O)CSc1nc2ccccc2[nH]1)C1CCS(=O)(=O)C1 (stereo not drawn) | > 57.2 µg/mL
97 | Cc1ccc(C)c(NC(=O)C2CCCC2)c1 | > 32.6 µg/mL

Row | Compound | solubility kinetic
98 | CCN(C1CCS(=O)(=O)C1)S(=O)(=O)c1ccc2ccccc2c1 (stereo not drawn) | 15.9 µg/mL (≈ 45 µM)
99 | Cc1ccc(Cl)cc1NC(=O)C1C2CCC(O2)C1C(=O)O (stereo not drawn) | > 46.5 µg/mL
100 | Br.COC(=O)CN1C2=NCCCN2c2ccccc21 | > 48.9 µg/mL
101 | NS(=O)(=O)c1cccc(NC(=O)CSc2nc3ccccc3c(=O)n2Cc2ccco2)c1 | 6.4 µg/mL (≈ 13.6 µM)
102 | CC1=Nc2cc([N+](=O)[O-])ccc2NC(C)(C)C1 | 17 µg/mL (≈ 72.9 µM)
103 | OCC(O)C1OC(Nc2ccc(Cl)cc2)C(O)C1O (stereo not drawn) | > 43.5 µg/mL
104 | Cc1cc(C)c2c(c1)N[C@H](c1cccs1)[C@@H]1CCO[C@H]21 | 1.7 µg/mL (≈ 5.96 µM)
105 | COc1ccccc1NC(=O)c1ccc(NC(=O)CN2CCCCC2)cc1.O=C(O)C(=O)O | > 68.6 µg/mL
106 | C/C(=N/OC(=O)C1CC1)c1cc(-c2ccc(Cl)cc2)no1 | 0.4 µg/mL (≈ 1.31 µM)
107 | COc1ccc(CSc2ncnc3sccc23)cc1F | < 0.3 µg/mL
108 | O=C(NC1CCCC1)C1CCN(C(=O)NCc2ccccc2)CC1 | > 49.4 µg/mL
109 | COc1cccc(C=N[C@@H](CO)[C@@H](O)c2ccc([N+](=O)[O-])cc2)c1O | 50.6 µg/mL (≈ 146 µM)
110 | CN1CCN(S(=O)(=O)c2ccccc2)C(c2ccccc2)C1 (stereo not drawn) | 44.2 µg/mL (≈ 140 µM)
111 | Cc1ccc2cc(C)c(N3CCN(c4ccc(F)cc4)CC3)nc2c1 | < 0.2 µg/mL
112 | Cc1ccc2nc(/N=C(\N)NC(=O)NC3CCCCC3)nc(C)c2c1 | 8 µg/mL (≈ 23.5 µM)
113 | COCCN(C(=O)CSc1ccc2c(c1)OCCO2)c1c(N)n(CC(C)C)c(=O)[nH]c1=O | > 69.7 µg/mL
114 | CCCC/C(O)=C1\C(=O)CC(C)(C)CC1=NCCCCCC(=O)O | > 50.6 µg/mL
115 | C=CCNC(=O)/C(C#N)=C/c1ccc(C)o1 | > 32.4 µg/mL
116 | CC(C)c1cccc(C(C)C)c1OCCCCCN1CCOCC1 | 33.4 µg/mL (≈ 100 µM)
117 | Cc1ccc2nc(Br)c3c(c2c1)OC(CBr)C3 (stereo not drawn) | 9.7 µg/mL (≈ 27.2 µM)
118 | O=C(c1c(F)c(F)c(F)c(F)c1F)N1CCN(Cc2ccc3c(c2)OCO3)CC1 | 2.3 µg/mL (≈ 5.55 µM)
